Laboratory results from US10590460B2, “Selective enrichment medium for carbapenem-resistant bacteria” (priority 2008, dated 2020).

How the values were obtained:
[1] = tested on: carbapenem-sensitive flora; assay: Culture of carbapenem-sensitive or carbapenem-resistant strains on CHROMagar Orientation medium with a carbapenem; format: cell-based
Experimental: Different strains of carbapenem-sensitive bacteria or carbapenem-resistant bacteria were cultured under three sets of conditions: • group 1: CHROMagar Orientation medium • group 2: CHROMagar Orientation medium in the presence of meropenem (0.065; 0.25; 1 or 4 mg/L); and • group 3: CHROMagar Orientation medium in the presence of imipenem (MSD, TIENAM (includes 50% imipenem) 0.0325; 0.125; 0.5 or 2 mg/L of imipenem)
Different strains of carbapenem-sensitive bacteria or carbapenem-resistant bacteria were cultured under two sets of conditions: • group 1: CHROMagar Orientation medium; and • group 2: CHROMagar Orientation medium in the presence of ertapenem (INVAZ; 0.0325; 0.065; 0.125; 0.25; 0.5 or 2 mg/L).

[2] = tested on: carbapenem-sensitive bacteria; assay: Ageing tests on meropenem versus imipenem in CHROMagar Orientation medium; format: cell-based
Experimental: (§1) Different strains of carbapenem-sensitive bacteria or carbapenem-resistant bacteria were cultured under three different sets of conditions and with different spreading concentrations: • group 1: CHROMagar Orientation medium • group 2: CHROMagar Orientation medium in the presence of imipenem (MSD, TIENAM (includes 50% imipenem) 1 or 2 mg/L imipenem), and • group 3: CHROMagar Orientation medium in the presence of meropenem (0.12 or 0.25 mg/L).
(§2) Culture plates were then incubated at 37° C. and analysed regularly to establish the growth or absence of growth of bacteria.

[3] = format: physicochemical
Experimental: as §1, §2

Structure (SMILES) | minimum concentration to eliminate carbapenem-sensitive flora [1] [mg/L] | inhibition of the growth of carbapenem-sensitive bacteria ([2]; 0.25 mg/L meropenem, 55 days in culture, 37° C.) | effectiveness in terms of inhibition compared to imipenem ([2]; ageing test, CHROMagar Orientation medium) | stability in an agar medium (duration) [3] [months] | stability in the used culture medium compared to imipenem [3] | minimum concentration of meropenem relative to necessary minimum concentration of imipenem [1] | stability in an agar medium (in words) [3] | minimum concentration needed to eliminate carbapenem-sensitive flora (in words) ([1]; ertapenem 0.0325-2 mg/L tested)
C[C@@H](O)[C@H]1C(=O)N2C(C(=O)O)=C(SCCN=CN)C[C@H]12 [imipenem] | 1 |  |  |  |  |  |  | 
C[C@@H](O)[C@H]1C(=O)N2C(C(=O)O)=C(S[C@@H]3CN[C@H](C(=O)N(C)C)C3)[C@H](C)[C@H]12 [meropenem] | 0.25 | always higher than inhibition obtained at a concentration of 0.12 mg/L of meropenem after 36 days in culture | much more effective than imipenem | 2 to 4 | much higher stability | about ten times lower |  | 
C[C@@H](O)[C@H]1C(=O)N2C(C(=O)O)=C(S[C@@H]3CN[C@H](C(=O)Nc4cccc(C(=O)O)c4)C3)[C@H](C)[C@H]12 [ertapenem] |  |  |  | 2 to 4 |  |  | good | falls between that of meropenem and imipenem
